Here are results for 35 compounds from patent US20230146395A1, “Substituted Pyrimidines and Uses Thereof” (Verge Analytics, Inc., priority 2020, published 2023).

Counter-ions that a name gives are not always drawn.

The target in the assay is T1, Full length human recombinant PIKFYVE (Homo sapiens, UniProt Q9Y2I7).
T1 construct: Full length human recombinant PIKFYVE; purchased Carna Biosciences (Kobe, Japan); host or cells: baculovirus expression system
T1 sequence (Q9Y2I7 whole entry): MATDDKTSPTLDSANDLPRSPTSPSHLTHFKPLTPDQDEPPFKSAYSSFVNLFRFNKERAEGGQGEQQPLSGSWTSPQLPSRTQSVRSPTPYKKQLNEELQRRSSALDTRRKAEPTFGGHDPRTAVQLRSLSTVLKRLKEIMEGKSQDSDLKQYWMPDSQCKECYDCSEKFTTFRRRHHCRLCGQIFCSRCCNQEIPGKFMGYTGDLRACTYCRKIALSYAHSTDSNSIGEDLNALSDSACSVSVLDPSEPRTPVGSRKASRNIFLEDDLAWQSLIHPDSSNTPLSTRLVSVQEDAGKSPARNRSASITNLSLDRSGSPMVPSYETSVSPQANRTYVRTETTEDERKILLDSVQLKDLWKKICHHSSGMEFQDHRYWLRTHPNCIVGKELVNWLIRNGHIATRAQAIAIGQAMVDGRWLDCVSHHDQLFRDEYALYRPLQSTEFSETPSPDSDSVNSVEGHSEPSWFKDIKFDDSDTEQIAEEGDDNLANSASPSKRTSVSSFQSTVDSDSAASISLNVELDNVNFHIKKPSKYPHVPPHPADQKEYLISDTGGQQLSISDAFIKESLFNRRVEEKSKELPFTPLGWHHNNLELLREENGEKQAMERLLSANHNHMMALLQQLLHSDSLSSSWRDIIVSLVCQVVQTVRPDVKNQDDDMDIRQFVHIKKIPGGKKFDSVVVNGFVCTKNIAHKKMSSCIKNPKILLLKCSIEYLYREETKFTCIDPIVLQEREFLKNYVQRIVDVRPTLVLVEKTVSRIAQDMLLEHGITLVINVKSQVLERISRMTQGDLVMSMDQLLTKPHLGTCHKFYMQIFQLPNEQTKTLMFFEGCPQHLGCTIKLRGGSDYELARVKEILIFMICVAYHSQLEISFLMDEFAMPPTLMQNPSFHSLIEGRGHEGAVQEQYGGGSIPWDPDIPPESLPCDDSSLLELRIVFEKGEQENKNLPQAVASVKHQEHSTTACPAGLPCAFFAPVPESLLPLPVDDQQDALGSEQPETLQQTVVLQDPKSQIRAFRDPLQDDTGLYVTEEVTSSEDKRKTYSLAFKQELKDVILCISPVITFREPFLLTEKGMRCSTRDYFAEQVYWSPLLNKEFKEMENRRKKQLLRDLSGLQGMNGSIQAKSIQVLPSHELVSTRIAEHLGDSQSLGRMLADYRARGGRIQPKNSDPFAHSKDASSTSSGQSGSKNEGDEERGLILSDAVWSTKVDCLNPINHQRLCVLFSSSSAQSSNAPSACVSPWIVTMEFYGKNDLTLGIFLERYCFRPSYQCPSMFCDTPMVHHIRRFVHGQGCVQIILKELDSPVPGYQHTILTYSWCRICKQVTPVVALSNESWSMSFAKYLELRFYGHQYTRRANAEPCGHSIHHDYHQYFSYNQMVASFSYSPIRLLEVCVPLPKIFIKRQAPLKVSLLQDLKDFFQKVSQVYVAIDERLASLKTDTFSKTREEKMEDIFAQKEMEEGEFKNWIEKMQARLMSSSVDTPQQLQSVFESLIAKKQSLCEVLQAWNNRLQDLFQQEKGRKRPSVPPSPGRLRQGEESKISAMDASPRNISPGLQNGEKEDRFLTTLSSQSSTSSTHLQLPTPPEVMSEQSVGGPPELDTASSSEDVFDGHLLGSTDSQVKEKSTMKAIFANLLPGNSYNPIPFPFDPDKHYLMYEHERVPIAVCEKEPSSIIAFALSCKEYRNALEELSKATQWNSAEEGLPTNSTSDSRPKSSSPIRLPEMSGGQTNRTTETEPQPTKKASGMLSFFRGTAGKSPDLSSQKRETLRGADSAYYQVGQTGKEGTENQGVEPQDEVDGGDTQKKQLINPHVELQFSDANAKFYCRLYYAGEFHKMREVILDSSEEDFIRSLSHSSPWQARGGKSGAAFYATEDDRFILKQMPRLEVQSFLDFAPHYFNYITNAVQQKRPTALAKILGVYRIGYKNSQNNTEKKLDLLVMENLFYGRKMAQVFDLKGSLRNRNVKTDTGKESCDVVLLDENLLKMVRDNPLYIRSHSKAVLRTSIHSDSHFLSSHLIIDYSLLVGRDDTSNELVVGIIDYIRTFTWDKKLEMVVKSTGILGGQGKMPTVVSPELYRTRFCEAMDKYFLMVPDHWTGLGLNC
Briefly: Inhibition of PIKfyve (microfluidic electrophoresis kinase assay, PI3P/PS substrate). In kind it is biochemical. To be noted: 12 concentrations. The essentials:
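GST-tagged full-length human PIKFYVE (baculovirus; 2 nM) with fluorescent PI3P/PS (1 μM PI3P) and […] in pH 7.5 HEPES with Mg2+/Mn2+, 1% DMSO, 3 h at room temperature. PI(3,5)P product/substrate ratio read by microfluidic electrophoresis; 12-point % inhibition versus no-enzyme and DMSO controls.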
`O=C(c1cc2nc(Nc3cc(-c4ccccc4)n[nH]3)nc(N3CCOCC3)c2o1)N1CCC1` [Compound 53, azetidin-1-yl(4-morpholino-2-((3-phenyl-1H-pyrazol-5-yl)amino)furo[3,2-d]pyrimidin-6-yl)methanone hydrochloride]: the IC50 came out at 60 nM. With `CON(C)C(=O)c1cc2nc(Nc3cc(-c4ccccc4)[nH]n3)nc(N3CCOCC3)c2o1` [Compound 139, N-methoxy-N-methyl-4-morpholino-2-((5-phenyl-1H-pyrazol-3-yl)amino)furo[3,2-d]pyrimidine-6-carboxamide], the half-inhibitory concentration (IC50) turned out to be 22 nM. On to `O=C(NC1CC1)c1cc2nc(-n3ccc(-c4ccccc4)n3)nc(N3CCOCC3)c2o1` [Compound 153, N-cyclopropyl-4-morpholino-2-(3-phenylpyrazol-1-yl)furo[3,2-d]pyrimidine-6-carboxamide], for which the IC50 came out at 24 nM. `CS(=O)(=O)NC(=O)c1cc2nc(Nc3cc(-c4ccccc4)n[nH]3)nc(N3CCOCC3)c2o1` [Compound 65, N-(methylsulfonyl)-4-morpholino-2-((3-phenyl-1H-pyrazol-5-yl)amino)furo[3,2-d]pyrimidine-6-carboxamide hydrochloride]: the half-inhibitory concentration (IC50) was 235 nM. With `Cc1cc(Nc2nc(N3CCOCC3)c3occc3n2)[nH]n1` [Compound 9, N-(5-methyl-1H-pyrazol-3-yl)-4-morpholino-furo[3,2-d]pyrimidin-2-amine, hydrogen chloride], the concentration for half-maximal inhibition (IC50) was more than 10000 nM.

Regarding `Cc1cccc(-c2ccn(-c3nc(N4CCOCC4)c4oc(C(N)=O)cc4n3)n2)c1` [Compound 94, 4-morpholino-2-(3-(m-tolyl)-1H-pyrazol-1-yl)furo[3,2-d]pyrimidine-6-carboxamide], the IC50 was found to be 86.7 nM. Consider `O=C(c1cc2nc(Nc3cc(-c4ccccc4)[nH]n3)nc(N3CCOCC3)c2o1)N1CCOCC1` [Compound 135, morpholino(4-morpholino-2-((5-phenyl-1H-pyrazol-3-yl)amino)furo[3,2-d]pyrimidin-6-yl)methanone], for which the IC50 was 147 nM. The same measure for `CNC(=O)c1cc2nc(-n3ccc(-c4cccc(C)c4)n3)nc(N3CCOCC3)c2o1` [Compound 92, N-methyl-4-morpholino-2-(3-(m-tolyl)-1H-pyrazol-1-yl)furo[3,2-d]pyrimidine-6-carboxamide]: 91.5 nM. Turning to `c1cncc(-c2cc(Nc3nc(N4CCOCC4)c4oc(-c5ccncc5)cc4n3)[nH]n2)c1` [Compound 18, 4-morpholino-6-(4-pyridyl)-N-[5-(3-pyridyl)-1H-pyrazol-3-yl]furo[3,2-d]pyrimidin-2-amine, hydrogen chloride], the IC50 came to 144 nM. With `c1cc(-c2cc(Nc3nc(N4CCOCC4)c4oc(-c5ccncc5)cc4n3)[nH]n2)ccn1` [Compound 6, 4-morpholino-6-(4-pyridyl)-N-[5-(4-pyridyl)-1H-pyrazol-3-yl]furo[3,2-d]pyrimidin-2-amine, hydrogen chloride], the half-maximal inhibitory concentration (IC50) was found to be 44.6 nM.

Regarding `Cc1cccc(-c2ccn(-c3nc(N4CCOCC4)c4oc(-c5cc(C)ns5)cc4n3)n2)c1` [Compound 210, 6-(3-methylisothiazol-5-yl)-4-morpholino-2-[3-(m-tolyl)pyrazol-1-yl]furo[3,2-d]pyrimidine], the IC50 worked out at 3.8 nM. Regarding `c1ccc(-c2cc(Nc3nc(N4CCOCC4)c4oc(CN5CCCC5)cc4n3)[nH]n2)cc1` [Compound 16], the IC50 was 1000 nM. As to `Fc1cccc(-c2cc(Nc3nc(N4CCOCC4)c4occc4n3)[nH]n2)c1` [Compound 7, N-[5-(3-fluorophenyl)-1H-pyrazol-3-yl]-4-morpholino-furo[3,2-d]pyrimidin-2-amine, hydrogen chloride], the IC50 came out at 451 nM. The same measure for `CNC(=O)c1cc2nc(Nc3cc(Cc4ccccc4)n[nH]3)nc(N3CCOCC3)c2o1` [Compound 82]: 1390 nM; for `c1ccc(-c2ccn(-c3nc(N4CCOCC4)c4oc(-c5cccnc5)cc4n3)n2)cc1` [Compound 156, 4-morpholino-2-(3-phenyl-1H-pyrazol-1-yl)-6-(pyridin-3-yl)furo[3,2-d]pyrimidine]: 152 nM. As for `Cc1cc(-c2cc3nc(-n4cc(-c5ccccc5)cn4)nc(N4CCOCC4)c3o2)[nH]n1` [Compound 163, 6-(3-methyl-1H-pyrazol-5-yl)-4-morpholino-2-(4-phenylpyrazol-1-yl)furo[3,2-d]pyrimidine], the concentration for half-maximal inhibition (IC50) is 23.5 nM. On to `Cn1ccc(-c2cc3nc(-n4ccc(-c5cccc(Cl)c5)n4)nc(N4CCOCC4)c3o2)n1` [Compound 193, 2-[3-(3-chlorophenyl)pyrazol-1-yl]-6-(1-methylpyrazol-3-yl)-4-morpholino-furo[3,2-d]pyrimidine], for which the half-inhibitory concentration (IC50) is 24.6 nM. With `CN1CCN(Cc2cc3nc(Nc4cc(-c5ccccc5)n[nH]4)nc(N4CCOCC4)c3o2)CC1` [Compound 15] the figure was 71 nM; with `CN(C)Cc1cc2nc(Nc3cc(-c4ccccc4)n[nH]3)nc(N3CCOCC3)c2o1` [Compound 14], 847 nM.

With `Cc1cccc(-c2cnn(-c3nc(N4CCOCC4)c4oc(-c5ccn(C)n5)cc4n3)c2)c1` [Compound 201, 6-(1-methylpyrazol-3-yl)-4-morpholino-2-[4-(m-tolyl)pyrazol-1-yl]furo[3,2-d]pyrimidine], the IC50 was 0.5 nM. In the case of `[2H]C([2H])([2H])c1cccc(-c2ccn(-c3nc(N4CCOCC4)c4oc(-c5ccccn5)cc4n3)n2)c1` [Compound 217, 4-morpholino-6-(2-pyridyl)-2-[3-[3-(trideuteriomethyl)phenyl]pyrazol-1-yl]furo[3,2-d]pyrimidine], the IC50 was 2.2 nM.

With `O=C(NCC1CC1)c1cc2nc(-n3ccc(-c4ccccc4)n3)nc(N3CCOCC3)c2o1` [Compound 166, N-(cyclopropylmethyl)-4-morpholino-2-(3-phenylpyrazol-1-yl)furo[3,2-d]pyrimidine-6-carboxamide], the IC50 stood at 220 nM. Regarding `CN(CC1CC1)C(=O)c1cc2nc(Nc3cc(-c4ccccc4)[nH]n3)nc(N3CCOCC3)c2o1` [Compound 62, N-(cyclopropylmethyl)-N-methyl-4-morpholino-2-[(5-phenyl-1H-pyrazol-3-yl)amino]furo[3,2-d]pyrimidine-6-carboxamide, hydrogen chloride], the IC50 was 73 nM. The same measure for `Cc1c(C(=O)NC2CC2)oc2c(N3CCOCC3)nc(-n3ccc(-c4ccccc4)n3)nc12` [Compound 184, N-cyclopropyl-7-methyl-4-morpholino-2-(3-phenylpyrazol-1-yl)furo[3,2-d]pyrimidine-6-carboxamide]: 1430 nM; for `O=C(NC1CC1)c1cc2nc(Nc3cc(-c4ccccc4)[nH]n3)nc(N3CCOCC3)c2o1` [Compound 59]: 4.3 nM; for `CNC(=O)c1cc2nc(Nc3cc(C(C)C)n[nH]3)nc(N3CCOCC3)c2o1` [Compound 88, 2-((5-isopropyl-1H-pyrazol-3-yl)amino)-N-methyl-4-morpholinofuro[3,2-d]pyrimidine-6-carboxamide, hydrogen chloride]: 7400 nM. On to `c1ccc(-c2cc3nc(Nc4cc(-c5ccncc5)n[nH]4)nc(N4CCOCC4)c3o2)nc1` [Compound 28, 4-morpholino-6-(pyridin-2-yl)-N-(3-(pyridin-4-yl)-1H-pyrazol-5-yl) furo[3,2-d] pyrimidin-2-aminehydrochloride], for which the half-maximal inhibitory concentration (IC50) turned out to be 677 nM. Consider `Cc1cc(-c2ccn(-c3nc(N4CCOCC4)c4oc(-c5ccccn5)cc4n3)n2)ccn1` [Compound 188, 2-[3-(2-methyl-4-pyridyl)pyrazol-1-yl]-4-morpholino-6-(2-pyridyl)furo[3,2-d]pyrimidine], for which the 50% inhibitory concentration (IC50) is 2830 nM.

Take `CN1CCCC(NC(=O)c2cc3nc(-n4cc(-c5ccccc5)cn4)nc(N4CCOCC4)c3o2)CC1` (centres unmarked) [Compound 176, N-(1-methylazepan-4-yl)-4-morpholino-2-(4-phenylpyrazol-1-yl)furo[3,2-d]pyrimidine-6-carboxamide]: the IC50 came out at 47.3 nM. As for `CN(CC1CC1)C(=O)c1cc2nc(-n3cc(-c4ccccc4)cn3)nc(N3CCOCC3)c2o1` [Compound 66, N-(cyclopropylmethyl)-N-methyl-4-morpholino-2-(4-phenyl-1H-pyrazol-1-yl)furo[3,2-d]pyrimidine-6-carboxamide], the IC50 was 612 nM. For `Cc1cccc(-c2cnn(-c3nc(N4CC(F)(F)OC(F)(F)C4)c4oc(-c5cccnc5)cc4n3)c2)c1` [Compound 133, 6-(pyridin-3-yl)-4-(2,2,6,6-tetrafluoromorpholino)-2-(4-(m-tolyl)-1H-pyrazol-1-yl)furo[3,2-d]pyrimidine], the IC50 was more than 20000 nM. `Cn1cc(-c2cc3nc(-n4ccc(-c5ccccc5)n4)nc(N4CCOCC4)c3o2)cn1` [Compound 208, 6-(1-methylpyrazol-4-yl)-4-morpholino-2-(3-phenylpyrazol-1-yl)furo[3,2-d]pyrimidine]: the IC50 worked out at 8.2 nM. For the compound `CNC(=O)c1cc2nc(Nc3cc(CC4CC4)n[nH]3)nc(N3CCOCC3)c2o1` [Compound 79, 2-((5-(cyclopropylmethyl)-1H-pyrazol-3-yl)amino)-N-methyl-4-morpholinofuro[3,2-d]pyrimidine-6-carboxamide, hydrogen chloride], the IC50 was not below 10000 nM. For `Cc1cccc(-c2ccn(-c3nc(N4CCOCC4)c4oc(-c5cnn(C)c5)cc4n3)n2)c1` [Compound 205, 6-(1-methylpyrazol-4-yl)-4-morpholino-2-[3-(m-tolyl)pyrazol-1-yl]furo[3,2-d]pyrimidine], the half-inhibitory concentration (IC50) was 1.3 nM. `Cc1cccc(-c2cnn(-c3nc(N4CCOCC4)c4oc(-c5cc(C)n(CCNC(=O)CCl)n5)cc4n3)c2)c1` [Compound 198, 2-chloro-N-[2-[5-methyl-3-[4-morpholino-2-[4-(m-tolyl)pyrazol-1-yl]furo[3,2-d]pyrimidin-6-yl]pyrazol-1-yl]ethyl]acetamide]: the half-maximal inhibitory concentration (IC50) is 0.6 nM.
